According to paper PMC8006935, “Study of Combinatorial Drug Synergy of Novel Acridone Derivatives With Temozolomide Using in-silico and in-vitro Methods in the Treatment of Drug-Resistant Glioma” (Frontiers in Oncology, 2021):

Columns and labels:
[1] = tested on: Drug resistant cancer cells (CR), T-98; experiment: Mathematical tumor growth model simulation and Bliss synergy, drug resistant cancer cells
[2] = earlier studies, no reference given; cited from earlier work
[3] = set-up: method as in PMID 21565270; conditions: cited from earlier work

For `O=C(NN=CC=Cc1ccccc1)c1cccc2c(=O)c3ccccc3[nH]c12` [AC2, 9-oxo-N'-(3-phenylallylidene)-9,10-dihydroacridine-4-carbohydrazide], the “% fold change [(final-initial)/initial]*100” value ([1]; combination TMZ + AC2) is given as 3.26%, the “Fold change = final IC50/initial IC50” value ([1]; combination TMZ + AC2) is given as 0.96 and the “cardiotoxicity, nephrotoxicity and necrosis” value [2] is given as “no cardiotoxicity, nephrotoxicity and necrosis”. The liver histopathology [2] was “minimal hyperchromatic, anaplasia, and cellular infiltration” and the “cytotoxicity in comparison to the other acridone derivatives” value (“cytotoxicity in comparison” for short) [3] was 100 times.

In the case of `O=C(NN=Cc1ccccc1Cl)c1cccc2c(=O)c3ccccc3[nH]c12` [AC7, N'-(2-chlorobenzylidene)-9-oxo-9,10-dihydroacridine-4-carbohydrazide], the “% fold change [(final-initial)/initial]*100” value ([1]; combination TMZ + AC7) is given as 8.5%, the “Fold change = final IC50/initial IC50” value ([1]; combination TMZ + AC7) is given as 0.91 and the “cardiotoxicity, nephrotoxicity and necrosis” value [2] is given as “no cardiotoxicity, nephrotoxicity and necrosis”. The liver histopathology [2] was “minimal hyperchromatic, anaplasia, and cellular infiltration” and the “cytotoxicity in comparison” value [3] was 100 times.

In the case of `CC(=NNC(=O)c1cccc2c(=O)c3ccccc3[nH]c12)c1ccccc1O` [AC26, N'(1-(2-hydroxyphenyl)ethylidene)-9-oxo-9,10-dihydroacridine-4-carbohydrazide], the “Fold change = final IC50/initial IC50” value ([1]; combination TMZ + AC26) is listed as 0.88, the “cardiotoxicity, nephrotoxicity and necrosis” value [2] is listed as “no cardiotoxicity, nephrotoxicity and necrosis” and the liver histopathology [2] is listed as “minimal hyperchromatic, anaplasia, and cellular infiltration”. The “cytotoxicity in comparison” value [3] was 100 times.
